From patent publication US11191265B2, “Method of reducing crop damage” (Bayer CropScience Aktiengesellschaft, priority 2016, dated 2021)

What was measured:
Assay type in all cases: in vivo
[1] = system: Wheat (winter wheat, TRZAW); assay: Method A: safener seed treatment, then post-emergence herbicide, greenhouse pot test, crop damage scored visually; settings: 20 days after post-emergence application at BBCH11; herbicide 300 g/ha; safener (mefenpyr-diethyl) seed treatment 0.5 g/kg where combined; vs untreated controls; mean of at least 3 replicates
Experimental: (§1) Wheat seeds (winter wheat, TRZAW) were placed in sandy loam soil in pots of a diameter of 7 cm, covered with soil and cultivated in a greenhouse under good growth conditions.
(§2) For the safener seed treatment, sufficient seeds were weighed into screw top glass bottles approximately twice the volume of the seeds.
(§3) The safener (mefenpyr-diethyl, formulated as wettable powder; WP) was weighed out so that the required rates (g a.i./kg seed) would be obtained, dissolved in water (1 ml water per 10 g of seeds), and added to the seeds to produce a slurry.
(§4) The bottles were capped and then placed in an overhead shaker (set at medium speed for up to 1 hour) so that the seeds were evenly coated with the slurry. The bottles were uncapped and the seeds were sown as described above.
Post-emergence application of the herbicide was done when the plants had reached growth stage BBCH11.
(§5) After application, the test plants were kept in the greenhouse under good growth conditions.
(§6) Values in the table below are mean values from at least 3 replicates.

[2] = system: Wheat (winter wheat, TRZAW); assay: Prior-art method: post-emergence herbicide with or without safener in tank mix, greenhouse pot test, crop damage scored visually; settings: 20 days after post-emergence application at BBCH11; herbicide 300 g/ha; safener (mefenpyr-diethyl) 200 g/ha in tank mix where combined; vs untreated controls; mean of at least 3 replicates
Excerpt: 1. Method as Used in the Prior Art
as §1
Post-emergence application was done when the plants had reached growth stage BBCH11 (BBCH is the international coding system for the growth stage of crops and weeds).
(§7) The safener (mefenpyr-diethyl) was formulated as wettable powder (WP).
(§8) The compounds were sprayed onto the green parts of the plants as an aqueous suspension at an equivalent water application rate of 300 l/ha with addition of 0.2% wetting agent (Agrotin).
(§9) The combination of herbicide and safener was applied as a tank mix.
as §5, §6

[3] = system: Wheat (winter wheat, TRZAW); assay: Method D: safener seed treatment, then pre-emergence herbicide plus safener tank mix, greenhouse pot test, crop damage scored visually; settings: 21 days after pre-emergence application to the soil surface; herbicide 300 g/ha; safener (mefenpyr-diethyl) seed treatment 0.5 g/kg and 200 g/ha in tank mix where combined; vs untreated controls; mean of at least 3 replicates
Experimental: as §1, §2, §3, §4
The compounds were sprayed to the soil surface as an aqueous suspension at an equivalent water application rate of 300 l/ha with addition of 0.2% wetting agent (Agrotin).
as §9, §5, §6

[4] = system: Wheat (winter wheat, TRZAW); assay: Method C: safener seed treatment, then post-emergence herbicide plus safener tank mix, greenhouse pot test, crop damage scored visually; settings: 20 days after post-emergence application at BBCH11; herbicide 300 g/ha; safener (mefenpyr-diethyl) seed treatment 0.5 g/kg and 200 g/ha in tank mix where combined; vs untreated controls; mean of at least 3 replicates
Experimental: as §1, §2, §3, §4
Post-emergence application was done when the plants had reached growth stage BBCH11.
as §7, §8, §9, §5, §6

CC1(C)CON(Cc2ccc(Cl)cc2Cl)C1=O [Herbicide post-em., 2-(2,4-dichlorophenyl)methyl-4,4-dimethyl-3-isoxazolidinone]
% chlorosis [1]: 40%
% growth depression [1]: 40%
% chlorosis [2]: 40%
% growth depression [2]: 40%
% chlorosis [3]: 17%
% growth depression [3]: 27%
% chlorosis [4]: 40%
% growth depression [4]: 40%
